2 compounds from patent US7732412B2, “Methods of treatment using novel LHRH antagonists having improved solubility properties” (Zentaris GmbH, priority 1999, dated 2010) can be followed below.

Numbered stars: 1 amine (or outer) side, 2 acyl side, 3 side chain; on linkers, the order of the positions; unused ones are H or OH. Square brackets hold non-standard residues; d marks the D form. Side chains are listed from the residue outwards. Peptide text beside a SMILES is read from it. * marks the point of attachment. NH(4-amidinophenyl) = N=C(N)c1ccc(N*)cc1; dPhe(4-Cl) = N[C@H](Cc1ccc(Cl)cc1)C(=O)O; d2Nal = N[C@H](Cc1ccc2ccccc2c1)C(=O)O; NMeY = CN[C@@H](Cc1ccc(O)cc1)C(=O)O; dCit = NC(=O)NCCC[C@@H](N)C(=O)O; d3Pal = N[C@H](Cc1cccnc1)C(=O)O; Suc = O=C(CCC(=O)[*:2])[*:1]

Experiment [1] has as its target T1, human LHRH receptor (Homo sapiens, UniProt P30968).
T1 sequence (P30968 1-328): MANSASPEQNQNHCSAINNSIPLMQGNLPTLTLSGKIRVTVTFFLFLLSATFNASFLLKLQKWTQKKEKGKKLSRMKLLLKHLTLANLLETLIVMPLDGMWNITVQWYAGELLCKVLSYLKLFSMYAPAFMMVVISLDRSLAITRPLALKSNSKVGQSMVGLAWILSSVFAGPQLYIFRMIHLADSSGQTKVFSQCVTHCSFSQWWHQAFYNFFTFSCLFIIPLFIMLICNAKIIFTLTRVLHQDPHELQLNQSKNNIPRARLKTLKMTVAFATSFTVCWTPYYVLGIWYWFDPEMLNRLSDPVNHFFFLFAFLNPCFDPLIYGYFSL
The experiment is described as follows: functional assay for antagonistic activity, fos-Luc luciferase reporter gene, stimulation with 1 nM [D-Trp6] LHRH. Conditions: cells stimulated with 1 nM [D-Trp6] LHRH for 6 h; bracket = number of independent experiments. The arrangement: expressed in transfected cells. It is filed as cell-based. As to the method: The assay for the functional characterization of antagonistic analogs of LH-RH was carried out, with some modifications, as described in Beckers et al., “Characterization of gonadotropin-releasing hormone analogs based on a sensitive cellular luciferase reporter gene assay” (1997) Analyt. Biochem. 251, 17-23. The assay uses a reporter gene made by fusing the c-fos immediate-early gene promoter to a DNA sequence encoding luciferase (Luc). A recombinant cell line that expresses the human LH-RH. receptor is stably transfected with the fos-Luc reporter gene. Transcription of the fos-Luc fusion gene and synthesis of the Luc protein is induced in the cells in a dose-dependent manner by LH-RH and other LH-RH agonists that bind and signal through the human LH-RH receptor. Peptide LH-RH antagonists such as the compounds of the invention bind to cellular LH-RH receptors and inhibit this stimulation. The antagonistic potency (IC50) of peptide LH-RH antagonists as determined by the assay generally correlates well with the binding affinity (KD) of the LH-RH antagonists for LH-RH receptor as determined from ligand binding experiments.
Cells containing the fos-Luc reporter gene that express the human LH-RH receptor were cultured for 24 h in microtitre plates using DMEM with additives and 1% (v:v) FCS (10,000 cells per well). The cells were then stimulated with 1 nM [D-Trp^6] LHRH for 6 h. Peptide LH-RH antagonist compounds according to the invention were added before the stimulation, and the cells were lysed at the end for quantification of the cellular Luc activity. The calculation of the IC50 values from dose-effect curves was carried out by non-linear regression analysis using the Hill model (Programme EDX 2.0 from C. Grunwald, Arzneimittelwerk Dresden).
The quantification of the Luc activity was carried out in duplicate essentially as described (Promega Technical Bulletins #101/161) using the respective luciferase assay system (Promega E4030). Owing to addition of coenzyme A (CoA), an oxidation of luciferyl-CoA takes place with advantageous kinetics. After the removal of the culture medium from the microtitre plate, the cells were lysed by addition of 100 μl of lysis buffer (25 mM tris-phosphate pH 7.8, 2 mM dithiothreitol, 2 mM 1,2-diaminocyclohexane-N,N,N′,N′-tetraacetic acid (CDTA), 10% (v:v) glycerol, 1% (v:v) Triton X-100). After incubation at room temperature for 15 min, 10 μl of cell lysate were transferred into a white microtitre plate suitable for luminometric detection (Dynatech). The enzymatic reaction was initiated by addition of 50 μl of assay buffer (20 mM tricine pH 7.8, 1.07 mM (MgCO3)4Mg(OH)2, 2.67 mM MgSO4, 0.1 mM ethylene-diaminetetraacetic acid (EDTA), 33.3 mM dithiothreitol, 270 μM coenzyme A, 470 μM glow-worm (Photinus pyralis) luciferin, 530 μM rATPNa2). After one minute, the luminescence was determined for a total time of one second with a signal half-life of five minutes using the EG&G Berthold MicroLumat LB 96 P.
A general note: A reporter such as luciferase makes a cellular process visible.

For experiment [2], the target named is T1, human LHRH receptor. Kind of experiment: receptor binding assay, displacement of [125I]-cetrorelix on intact cells. The settings on record: LTK cells expressing human LHRH receptor, 1 h at 37° C.; bracket = number of independent experiments; read-out: KD (binding affinity). Also on record: expressed in transfected cells; host or cells: LTK cells (stably transfected), intact cells. The source says:
The compounds according to formula I of the invention were investigated for their receptor binding. The assay method closely followed the process described in Beckers et al., “Selection and characterization of mammalian cell lines with stable overexpression of human pituitary receptors for gonadoliberin (GnRH)” (1995) Eur. J. Biochem., 231, 535-543. Cetrorelix obtained according to the synthesis disclosed above was iodinated with [^125I] (Amersham; specific activity 80.5 Bq/fmol) using the IodoGen reagent (Pierce). The reaction mixture was purified by reverse-phase high-performance liquid chromatography with exchanged phases, monoiodinated cetrorelix being obtained without unlabelled peptide. In each case, about 80% of the [^125I]-cetrorelix was capable of specific receptor association.
The receptor binding assay was carried out under physiological conditions as described (Beckers et al., 1995) using intact cells. Subconfluent cultures of stably transfected LTK cells, which express the human LHRH receptor, were separated off by incubation in NaCl/Pi (137 mM NaCl, 2.7 mM KCl, 8.1 mM Na2HPO4, […])/1 mM EDTA and collected by centrifugation. The cell pellet was resuspended in binding buffer (DMEM without H2CO3, with 4.5 g/l of glucose, 10 mM Hepes pH 7.5, 0.5% (mass/volume) BSA, 1 g/l bacitracin, 0.1 g/l SBTI, 0.1% (mass/volume) NaN3). For displacement assays, 0.25×10^6 cells/100 μl were incubated with approximately 225 pM of the [^125I]-cetrorelix (specific activity 5-10×10^5 dpm/pmol) and various concentrations of unlabelled compound according to the invention as competitor. The cell suspension in 100 μl of binding medium was layered in 400 μl assay tubes over 200 μl of 84% by volume silicone oil (Merck Type 550)/16% by volume paraffin oil. […] Cell pellet and supernatants were then analysed by counting the y radiation. The amount of non-specifically bound material was determined at a final concentration of 1 μM with inclusion of unlabelled cetrorelix and was typically ≦10% of the total bound material. […]
Background: Displacement assays read how much labelled ligand stays bound in the presence of the test substance.

In the case of `CC(=O)N[C@H](Cc1ccc2ccccc2c1)C(=O)N[C@H](Cc1ccc(Cl)cc1)C(=O)N[C@H](Cc1cccnc1)C(=O)N[C@@H](CO)C(=O)N(C)[C@@H](Cc1ccc(O)cc1)C(=O)N[C@H](CCCCNC(=O)CCC(=O)Nc1ccc(C(=N)N)cc1)C(=O)N[C@@H](CC(C)C)C(=O)N[C@@H](CCCNC(=N)N)C(=O)N1CCC[C@H]1C(=O)N[C@H](C)C(N)=O` [Example 3, Ac-D-Nal(2)^1-D-Cpa^2-D-Pal(3)^3-ser^4-N-Me-Tyr^5-D-Lys(B)^6-Leu^7-Arg^8-Pro^9-D-Ala^10-NH2] (Ac-[d2Nal][dPhe(4-Cl)][d3Pal]S[NMeY][dK]([Suc-NH(4-amidinophenyl)])LRP[dA]-NH2), the concentration for half-maximal inhibition (IC50) (in general, the point on the concentration scale where inhibition reaches its midpoint) on human LHRH receptor [1] came out at 0.492 nM. Also, the Kd (as a rule, the constant that tells how readily two partners part at equilibrium) at human LHRH receptor [2] came to 0.154 nM.
In the same order, the values of `CC(=O)N[C@H](Cc1ccc2ccccc2c1)C(=O)N[C@H](Cc1ccc(Cl)cc1)C(=O)N[C@H](Cc1cccnc1)C(=O)N[C@@H](CO)C(=O)N[C@@H](Cc1ccc(O)cc1)C(=O)N[C@H](CCCNC(N)=O)C(=O)N[C@@H](CC(C)C)C(=O)N[C@@H](CCCNC(=N)N)C(=O)N1CCC[C@H]1C(=O)N[C@H](C)C(N)=O` [cetrorelix, Ac-D-Nal(2)^1-D-Cpa^2-D-Pal(3)^3-Ser^4-Tyr^5-D-Cit^6-Leu^7-Arg^8-Pro^9-D-Ala^10-NH2, reference compound] (Ac-[d2Nal][dPhe(4-Cl)][d3Pal]SY[dCit]LRP[dA]-NH2) are 0.198 nM and 0.17 nM.
